# Reference: ChEMBL document CHEMBL1909294, “Translating clinical findings into knowledge in drug safety evaluation--drug induced liver injury prediction system (DILIps)” (PLoS Comput Biol, 2011)
# Legend:
# Hepatotoxicity [1] = system: Hepatotoxicity
# Description: Drug Induced Liver Injury Prediction System (DILIps) validation dataset; compound DILI positive/negative as observed in O'Brien data
# Hepatotoxicity [2] = system: Hepatotoxicity; remark: listed apart in the source
# Description: Drug Induced Liver Injury Prediction System (DILIps) validation dataset; compound DILI positive/negative as observed in Pfizer data
# Hepatotoxicity [3] = system: Hepatotoxicity; remark: listed apart in the source
# Description: Drug Induced Liver Injury Prediction System (DILIps) validation dataset; compound DILI positive/negative as observed in LTKB-BD
SMILES,DILI positive/negative (Hepatotoxicity [1]),DILI positive/negative (Hepatotoxicity [2]),further results
CC[C@]1(O)CC[C@H]2[C@@H]3CCC4=CCCC[C@@H]4[C@H]3CC[C@@]21C,1,–,–
CN(C)CCN(Cc1cccs1)c1ccccn1,1,1,–
CCN(CC)Cc1cc(Nc2ccnc3cc(Cl)ccc23)ccc1O.Cl,–,–,DILI positive/negative (Hepatotoxicity [1]; Liver): 1
CC(=O)Nc1ccc(O)cc1 [ACETAMINOPHEN],1,1,–
Nc1ccc(C(=O)O)c(O)c1 [AMINOSALICYLIC ACID],1,1,DILI positive/negative (Hepatotoxicity [3]): 1
CN(C)C(=O)Oc1cc(OC(=O)N(C)C)cc(C(O)CNC(C)(C)C)c1 (stereo not given) [BAMBUTEROL],0,0,–
O=C(O)CCCC[C@@H]1SC[C@@H]2NC(=O)N[C@@H]21 [BIOTIN],0,0,–
CC(=O)Oc1ccc(C(c2ccc(OC(C)=O)cc2)c2ccccn2)cc1 [BISACODYL],0,–,–
C[C@@](Cc1ccc(O)c(O)c1)(NN)C(=O)O.O [CARBIDOPA],0,0,DILI positive/negative (Hepatotoxicity [3]): 1
CC(C)(Oc1ccc(C2CC2(Cl)Cl)cc1)C(=O)O (stereo not given) [CIPROFIBRATE],1,1,–
C[N+](C)(C)CCOP(=O)(O)OP(=O)([O-])OC[C@H]1O[C@@H](n2ccc(N)nc2=O)[C@H](O)[C@@H]1O [CITICOLINE],0,0,–
CCOC(=O)C(C)(C)Oc1ccc(Cl)cc1 [CLOFIBRATE],1,1,–
COc1cc2c(c(OC)c1OC)-c1ccc(OC)c(=O)cc1[C@@H](NC(C)=O)CC2 [COLCHICINE],1,–,–
CCN(CC)C(=O)N1CCN(C)CC1 [DIETHYLCARBAMAZINE],1,1,–
C[S+](C)[O-] [DIMETHYL SULFOXIDE],0,–,–
NC(=O)OCC(COC(N)=O)c1ccccc1 [FELBAMATE],1,1,DILI positive/negative (Hepatotoxicity [3]): 1
O=c1[nH]c(=O)n([C@@H]2O[C@H](CO)[C@@H](O)[C@@H]2F)cc1I [FIALURIDINE],1,1,DILI positive/negative (Hepatotoxicity [3]): 1
O=C1OCCN1/N=C/c1ccc([N+](=O)[O-])o1 [FURAZOLIDONE],1,1,–
CC(=O)O[C@H]1C[C@@]2(C)[C@@H](C[C@@H](O)[C@H]3[C@@]4(C)CC[C@@H](O)[C@@H](C)[C@@H]4CC[C@@]32C)/C1=C(\CCC=C(C)C)C(=O)O [FUSIDIC ACID],1,–,–
O[C@H]1[C@H](O)[C@@H](O)[C@H](O)[C@@H](O)[C@H]1O [INOSITOL],0,0,–
CC(C)NNC(=O)c1ccncc1 [IPRONIAZID],–,1,DILI positive/negative (Hepatotoxicity [3]): 1
CC1=C(/C=C/C(C)=C/C=C/C(C)=C\C(=O)O)C(C)(C)CCC1 [ISOTRETINOIN],1,1,–
C=C1c2cccc(O)c2C(=O)C2=C(O)[C@]3(O)C(=O)C(C(N)=O)=C(O)[C@@H](N(C)C)[C@@H]3[C@@H](O)[C@H]12 [METHACYCLINE],1,–,–

SMILES,DILI positive/negative (Hepatotoxicity [1]),DILI positive/negative (Hepatotoxicity [2]),further results
CC(=O)Oc1cc(C(C)C)c(OCCN(C)C)cc1C [MOXISYLYTE],0,–,DILI positive/negative (Hepatotoxicity [3]): 1
CS(=O)(=O)Nc1ccc([N+](=O)[O-])cc1Oc1ccccc1 [NIMESULIDE],–,–,DILI positive/negative (Hepatotoxicity [3]; Liver): 1; DILI positive/negative (Hepatotoxicity [2]; Liver): 1; DILI positive/negative (Hepatotoxicity [1]; Liver): 1
CN1Cc2c(N)cccc2C(c2ccccc2)C1 (stereo not given) [NOMIFENSINE],–,1,DILI positive/negative (Hepatotoxicity [3]): 1
CO[C@@H]1[C@@H](OC(N)=O)[C@@H](O)[C@H](Oc2ccc3c(O)c(NC(=O)c4ccc(O)c(CC=C(C)C)c4)c(=O)oc3c2C)OC1(C)C [NOVOBIOCIN],1,1,–
CC[N+](C)(CC)CCOC(=O)C(O)(c1ccccc1)C1CCCCC1 (stereo not given) [OXYPHENONIUM],0,0,–
C#CCN(C)Cc1ccccc1 [PARGYLINE],0,0,–
C1CCC(C(CC2CCCCN2)C2CCCCC2)CC1 (stereo not given) [PERHEXILINE],–,1,DILI positive/negative (Hepatotoxicity [3]): 1
CCCCC1C(=O)N(c2ccccc2)N(c2ccccc2)C1=O [PHENYLBUTAZONE],–,–,DILI positive/negative (Hepatotoxicity [2]; Liver): 1; DILI positive/negative (Hepatotoxicity [1]; Liver): 1
CNC(=O)Oc1ccc2c(c1)[C@]1(C)CCN(C)[C@@H]1N2C [PHYSOSTIGMINE],0,0,–
COc1ccc(C(=O)NCc2cccnc2)cc1C(=O)NCc1cccnc1 [PICOTAMIDE],0,–,–
CC(N/C(=N\C#N)Nc1ccncc1)C(C)(C)C (stereo not given) [PINACIDIL ANHYDROUS],0,0,–
CC(C(=O)O)c1ccc(N2CC=CC2)c(Cl)c1 (stereo not given) [PIRPROFEN],–,1,DILI positive/negative (Hepatotoxicity [3]): 1
Cc1ncc(CO)c(CO)c1O [PYRIDOXINE],–,–,DILI positive/negative (Hepatotoxicity [2]; Liver): 0; DILI positive/negative (Hepatotoxicity [1]; Liver): 0
CCN(CC)CCCC(C)Nc1c2ccc(Cl)cc2nc2ccc(OC)cc12 (stereo not given) [QUINACRINE],1,–,–
C=C[C@H]1C[N@@]2CC[C@H]1C[C@H]2[C@H](O)c1ccnc2ccc(OC)cc12 [QUININE],1,–,–
Cc1nnc(NS(=O)(=O)c2ccc(N)cc2)s1 [SULFAMETHIZOLE],1,1,–
Cc1cc(NS(=O)(=O)c2ccc(N)cc2)no1 [SULFAMETHOXAZOLE],–,–,DILI positive/negative (Hepatotoxicity [3]; Liver): 1; DILI positive/negative (Hepatotoxicity [1]; Liver): 1
Nc1ccc(S(=O)(=O)Nc2ccnn2-c2ccccc2)cc1 [SULFAPHENAZOLE],1,–,–
Cc1nc(C)c2c(n1)N(Cc1ccc(-c3ccccc3-c3nnn[nH]3)cc1)C(=O)CC2 [TASOSARTAN],–,1,DILI positive/negative (Hepatotoxicity [3]): 1
CC(C)(C)c1ccc(C(O)CCCN2CCC(C(O)(c3ccccc3)c3ccccc3)CC2)cc1 (stereo not given) [TERFENADINE],1,0,–
Cc1ncc(C[n+]2csc(CCO)c2C)c(N)n1 [THIAMINE ION],–,–,DILI positive/negative (Hepatotoxicity [2]; Liver): 0; DILI positive/negative (Hepatotoxicity [1]; Liver): 0
CC(c1cc2ccccc2s1)N(O)C(N)=O (stereo not given) [ZILEUTON],1,1,DILI positive/negative (Hepatotoxicity [3]): 1
